The text below walks through data of the NIST ThermoML archive (doi:10.1016/j.jct.2008.08.012).

± gives the expanded uncertainty stated by the source.

Series [1] in a line: Molar enthalpy of transition or fusion. The conditions noted are these: Crystal; DSC.
The conditions of series [2]: Crystal; for mass density: 298.15 K, 101.33 kPa, mass and volume of pellet; for Normal melting temperature: DTA.

By mass density is commonly meant mass per unit of volume. For the compound `O=C1Cc2ccccc2CO1` [1,4-dihydro-3H-2-benzopyran-3-one], the “Molar enthalpy of transition or fusion” value in series [1] amounted to 4.37 ± 0.112 kcal/mol. For the same compound, in series [2], the mass density was determined as 1140 ± 10 kg/m3 and the Normal melting temperature amounted to 82.73 ± 0.39 °C.

As to `O=C1CCOc2ccccc21` [2,3-dihydro-4H-1-benzopyran-4-one], the “Molar enthalpy of transition or fusion” value in series [1] was 4 ± 0.129 kcal/mol. In addition, in series [2], the mass density was 1140 ± 10 kg/m3 and the Normal melting temperature came to 39.13 ± 0.39 °C.
